Source: patent US11498929B2, “Chromenopyrimidine derivatives as phosphatidylinsitol phosphate kinase inhibitors” (Hibercell, Inc., priority 2019, dated 2022)

Assays:
[1] = target: T1, PIP4K2 B (GST-tagged PIP4KtypeIIB) (Homo sapiens, UniProt P78356); experiment: Kinase Assay - PIP4K2 B (inhibition of PIP4K2 B kinase assay); type: biochemical; details: compounds listed under IC50 bin headings
T1 construct: GST; made in house; host or cells: E. coli
T1 sequence (P78356 1-416): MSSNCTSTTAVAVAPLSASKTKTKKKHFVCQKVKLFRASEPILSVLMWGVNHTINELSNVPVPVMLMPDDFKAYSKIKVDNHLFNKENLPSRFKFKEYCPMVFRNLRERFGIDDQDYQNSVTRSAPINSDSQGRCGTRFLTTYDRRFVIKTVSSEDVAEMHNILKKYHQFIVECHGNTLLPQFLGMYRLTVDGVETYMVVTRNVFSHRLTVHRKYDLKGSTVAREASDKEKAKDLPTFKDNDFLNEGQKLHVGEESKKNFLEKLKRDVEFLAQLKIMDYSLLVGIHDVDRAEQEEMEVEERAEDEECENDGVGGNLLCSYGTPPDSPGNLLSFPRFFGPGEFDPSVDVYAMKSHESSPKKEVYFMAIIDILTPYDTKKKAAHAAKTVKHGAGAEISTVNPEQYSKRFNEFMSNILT
Text: GST tagged PIP4KtypeIIA and B enzymes were overexpressed in E. Coli and purified to >80% homogeneity. Phosphatidyl inositol-5-phosphate (PI5P, Cat. #850152, Avanti Polar Lipids Inc.) was used as the lipid substrate and phosphatidyl ethanolamine (DOPE 18:1, Cat. #850725, Avanti Polar Lipids Inc.) was used as the carrier lipid for assays. Ultrapure ATP and GTP was purchased from Bellbrooke Labs. ADP Glo reagents were obtained from Promega. Transcreener FI reagent was obtained from Bellbrooke labs.
GST-tagged PIP4KtypeIIB (3.4 uL, 2.77 mg/mL) was diluted to 5 mL using HNE buffer to yield 5× enzyme stock (25 nM)
Lipid Preparation: In a 10 mL pyrex glass vial, 1 ug of PI5P and 1 ug of DOPE were suspended in 2.5 mL of HEPES buffer mix and 2.5 mL of H:E buffer. The contents were mixed and sonicated for 3 min to yield a translucent lipid stock.
Compound Preparation: Compounds were stored as 5 mM stocks in neat DMSO as room temperature in glass vials. 5 mM stocks were diluted to 2 mM and then serially diluted (3×) in neat DMSO in 96 well polypropylene plates. From the serially diluted stocks, 3 uL was delivered into 250 uL of 25% DMSO (in water) to generate 5× compound stocks. Typically, the highest compound conc. was 24 uM.
The assay volume was kept at 25 uL. To each well of the reaction plate, 10 uL of lipid stock (1:1 ratio PI5P:DOPE) was delivered. This was followed by the addition of 5 uL of compound in 25% DMSO. Then, to each well, 5 uL of 25 nM (5×) typeIIB enzyme was delivered. The contents were mixed well and incubated for 1 h at 27 C. After 1 h, reaction was initiated by adding 5 uL of 500 uM GTP and the contents were mixed well with a multi-channel pipetteman. The final concentration of the reagents are as follows: 50 mM HEPES, pH 7.3, 10 mM MgCl2, 20 mM NaCl, 0.01% v/v triton-X100, 5% DMSO, 100 uM GTP, 80 uM (2 ug) PI5P, 2 ug DOPE, and 5 nM PIP4KIIB Typically, the highest conc. of compounds was 4.8 uM and the lowest conc. was 0.
After 2 h, the reaction was quenched by adding 25 uL of transcreener FI reagent. The contents were incubated at RT for 1 h and the Fluorescence (Ex:584 Em: 623) was read using Molecular Devices Paradigm plate reader. […] The blanks were averaged and subtracted from all other wells. Using a calibration curve, RFU was converted to uM GDP (product). IC50 was calculated by plotting the residual activity (expressed as % No inhibitor control) vs. log [Inh. conc.]

[2] = target: T2, PIP4K2A (Homo sapiens, UniProt P48426); experiment: Kinase Assay - PIP4K2 A (inhibition of PIP4K2 A kinase assay); type: biochemical; details: compounds listed under IC50 bin headings
T2 construct: GST; made in house; host or cells: E. coli
T2 sequence (P48426 1-406): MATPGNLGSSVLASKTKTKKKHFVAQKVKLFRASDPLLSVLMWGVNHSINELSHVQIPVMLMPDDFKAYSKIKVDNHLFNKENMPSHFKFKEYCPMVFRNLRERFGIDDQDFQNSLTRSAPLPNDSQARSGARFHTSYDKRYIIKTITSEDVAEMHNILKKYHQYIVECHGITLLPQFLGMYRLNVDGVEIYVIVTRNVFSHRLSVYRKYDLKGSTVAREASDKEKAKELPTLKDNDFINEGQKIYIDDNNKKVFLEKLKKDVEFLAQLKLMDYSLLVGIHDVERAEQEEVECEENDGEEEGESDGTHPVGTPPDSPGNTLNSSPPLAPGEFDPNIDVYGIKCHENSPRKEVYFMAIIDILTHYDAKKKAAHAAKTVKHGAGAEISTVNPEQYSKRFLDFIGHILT
Experimental: Dilution series of the compounds were prepared in DMSO at 100 times the final assay concentration (n1=n0/3 in 10 points). The compounds were further diluted to three times the assay concentration in assay buffer (20 mM MOPS pH 7.2, 25 mM magnesium chloride, 0.005% Tween 20). 6 μL of the diluted compounds were added to a 384 well assay plate followed by 9 μL of a mix consisting of 4 nM PIP4K2A (full length protein, SignalChem) and 100 μM PI(5)P diC8 (Tebu-Bio). Enzyme and compounds were pre-incubated at room temperature for 15 minutes.
Then 3 μL of a solution containing 60 μM ATP (Promega) in assay buffer was added to the wells containing compound and enzyme and mixing was performed by pipetting several times. The reaction was incubated at room temperature for 1 h. Then 18 μL of ADP-Glo™ Reagent (Promega) was added to stop the kinase reaction and deplete the unconsumed ATP, mixing was performed by pipetting several times. The plate was incubated at room temperature for 40 minutes before addition of 36 μL of Kinase Detection Reagent (Promega) to convert ADP to ATP and introduce luciferase and luciferin to detect ATP. The reaction was incubated at room temperature for 40 minutes before the luminescence was measured in a in a Victor 3V 1420 multilabel counter (Perkin Elmer).
Percent inhibition of the compounds as compared to dimethyl sulfoxide treated control samples was calculated. Compound concentration versus percent inhibition were fitted to generate IC50 values. […]

[3] = tested on: MOLM-16; experiment: MOLM-16 EC50 assay; type: cell-based; details: MOLM16

SMILES	IC50 [1] [nM]	IC50 [2] [nM]	EC50 [3] [nM]
CN1CCOc2ncc(Nc3ncc4c(n3)C(C)(C)Oc3cc(N5C(=O)CCC56CC6)ccc3-4)cc21 [Compound 26, 4-[5,5-dimethyl-3-({1-methyl-1H,2H,3H-pyrido[2,3-b][1,4]oxazin-7-yl}amino)-5H-chromeno[3,4-d]pyrimidin-8-yl]-4-azaspiro[2.4]heptan-5-one]	1 to 10	1 to 10	100 to 1000
CC(=O)OC(C)(C)C(=O)N1CCOc2ncc(Nc3ncc4c(n3)C(C)(C)Oc3cc(-c5nocc5C)ccc3-4)cc21 [Compound 29, 1-(7-{[5,5-dimethyl-8-(4-methyl-1,2-oxazol-3-yl)-5H-chromeno[3,4-d]pyrimidin-3-yl]amino}-1H,2H,3H-pyrido[2,3-b][1,4]oxazin-1-yl)-2-methyl-1-oxopropan-2-yl acetate]	10 to 100	1 to 10	> 1000
CC1(C)Oc2cc(N3CCCC3=O)ccc2-c2cnc(Nc3cncc(CNCCS(C)(=O)=O)c3)nc21 [Compound 31, 1-{3-[(5-{[(2-methanesulfonylethyl)amino]methyl}pyridin-3-yl)amino]-5,5-dimethyl-5H-chromeno[3,4-d]pyrimidin-8-yl}pyrrolidin-2-one]	10 to 100	10 to 100	10 to 100
CCN(CC)CCN1CCOc2ncc(Nc3ncc4c(n3)C(C)(C)Oc3cc(N5CCCC5=O)ccc3-4)cc21 [Compound 36, 1-[3-({1-[2-(diethylamino)ethyl]-1H,2H,3H-pyrido[2,3-b][1,4]oxazin-7-yl}amino)-5,5-dimethyl-5H-chromeno[3,4-d]pyrimidin-8-yl]pyrrolidin-2-one]	> 1000	100 to 1000	10 to 100

More lines, now with the values ahead:

IC50 [1] [nM]	IC50 [2] [nM]	EC50 [3] [nM]	SMILES
100 to 1000	10 to 100	10 to 100	CCN(CC)CCN(C)c1cncc(Nc2ncc3c(n2)C(C)(C)Oc2cc(N4CCCC4=O)ccc2-3)c1 [Compound 32, 1-{3-[(5-{[2-(diethylamino)ethyl](methyl)amino}pyridin-3-yl)amino]-5,5-dimethyl-5H-chromeno[3,4-d]pyrimidin-8-yl}pyrrolidin-2-one]
100 to 1000	10 to 100	10 to 100	CN(C)CCOc1cncc(Nc2ncc3c(n2)C(C)(C)Oc2cc(N4CCCC4=O)ccc2-3)c1 [Compound 33, 1-[3-({5-[2-(dimethylamino)ethoxy]pyridin-3-yl}amino)-5,5-dimethyl-5H-chromeno[3,4-d]pyrimidin-8-yl]pyrrolidin-2-one]
> 1000	100 to 1000	100 to 1000	CN1CCN(CC(=O)N(C)c2cncc(Nc3ncc4c(n3)C(C)(C)Oc3cc(N5CCCC5=O)ccc3-4)c2)CC1 [Compound 35, N-(5-{[5,5-dimethyl-8-(2-oxopyrrolidin-1-yl)-5H-chromeno[3,4-d]pyrimidin-3-yl]amino}pyridin-3-yl)-N-methyl-2-(4-methylpiperazin-1-yl)acetamide]
